Experiments:
[1] = tested on: iPSC-derived chondronoids (MCRIi019-A and MCRIi018-B); experiment: Chondronoid maturation to hypertrophy with T3; format: cell-based, human
Procedure: Triiodothyronine (T3) is crucial for chondrocyte hypertrophy (Aghajanian et al., 2017) thus in some experiments differentiated chondrocytes were treated with 10 nM T3 (Sigma-Aldrich) for 10-21 days to induce chondrocyte hypertrophy. From day 20 (after 2 weeks of FGF2 treatment), differentiation/maturation continued in APEL2/5% PFHM (without FGF2) with medium replaced every 2-3 days. T3 was added when the pellets had consistent and even cartilage histology, which ranged between 4 and 6 weeks post-sclerotome chondrocyte differentiation. In some experiments, pellets were briefly treated with 0.25% trypsin/EDTA for 4 min at 37° C. with agitation to remove the small amount of non-cartilage tissue that occasionally remained on the surface of the chondrocyte pellets. These were allowed to recover in chondrocyte medium (APEL2/5% PFHM) for 1 week before analysis and/or T3 treatment and continued maturation.
(§1) Cultured and in vivo grafted pellet organoids were fixed overnight at 4° C. in Confix (Australian Biostain) neutral-buffered formalin, then […] washed in 70% ethanol, and paraffin-embedded. After fixing, some in vivo grafted pellets were washed in water for 10 minutes then decalcified in 14% EDTA, pH 7.4 at 4° C. for 5 days before embedding. Serial 5 μm sections cut from the pellet centers were mounted on Superfrost Plus slides (Menzel-Gläser) and heated at 55° C. overnight. Sections were treated with xylene to remove the paraffin wax and an ethanol series comprising 100%, 90%, 70%, 50% ethanol then water to rehydrate the sections. Sections were stained with toluidine blue to detect a cartilage proteoglycan matrix or safranin O/fast green for cartilage and bone following standard protocols. Osteogenic pellet sections were also stained with von Kossa to detect mineralization. Images were captured using a Leica DM 2000 LED microscope with Leica Application Suite (LAS) software version 4.9.0 or Zeiss Axio Imager Z2 with Zen 3.1 Blue Edition software.
Formalin fixed and paraffin-embedded sections were immunostained for collagen II (MAB8887; Sigma-Aldrich; 1:150 dilution), collagen I (LF68; Kerafast ENH018-FP; 1:100), collagen X (Cameron et al., 2015) (1:100), PRG4 (clone 9G3; Merck) (1:100) and Ku80 (Cell Signaling) (1:300). For collagen II staining, antigen retrieval used 2 mg/ml porcine pepsin (Sigma) freshly prepared in 1 M Tris/HCl, pH 2.0 for 30 minutes at 37° C., followed by digestion for 30 minutes at 37° C. with 0.2% hyaluronidase (Sigma-Aldrich) in PBS. Collagen X antigen retrieval involved heating to 60° C. in 10 mM Tris/1 mM EDTA/0.05% Tween-20, pH 9.0 (Tris/EDTA) for 30 min, cooling to room temperature for 30 minutes, followed by hyaluronidase digestion and collagen I and Ku80 staining followed antigen retrieval at 60° C. in Tris/EDTA as above. Sections to be stained with Ku80 were then permeabilized with 0.05% Triton X-100. Sections were blocked with 3% BSA in PBS for 1 hour at room temperature, then incubated with primary antibodies in 1% BSA in PBS for 16 hours at 4° C. Appropriate species specific Alexa Fluor 488 and 594 secondary antibodies (ThermoFisher) were diluted 1:200 in 1% BSA in PBS with 2.5 μg/ml DAPI, and sections incubated for 1 hour at room temperature. Slides were washed with PBS and coverslips mounted using Shandon Immumount (ThermoFisher). Images were captured as described above. For collagen X intracellular colocalization studies sections were treated with 0.2% hyaluronidase at 37° C. for 30 minutes then permeabilized with 0.05% Triton X-100. The collagen X antibody was used at 1:100, 58K (PA1-9000; ThermoFisher) at 1:50, GRP94 (PA5-18534; ThermoFisher) 1:200 and LAMP2 (ab25631; Abcam) 1:50. Images were captured on a Zeiss LSM900 Airyscan 2 confocal microscope with Zen 3.1 Blue Edition software. […]

MCRIi001-A-2 organoids = experiment: Osteogenic differentiation conditions in a second iPSC line; format: cell-based, human; details: 10 nM T3 for 14 days before osteogenic culture; both osteogenic conditions
Procedure: Hypertrophic chondrocytes can transdifferentiate into osteoblasts and osteocytes in vivo (Yang et al., 2014; Zhou et al., 2014). To recapitulate this later stage of endochondral bone formation in vitro, hypertrophic chondrocyte pellets in orbital culture were rinsed in PBS then cultured in DMEM, high glucose, GlutaMAX Supplement, pyruvate (ThermoFisher), 20% FBS (ThermoFisher), 10 mM β-glycerophosphate, 50 μg/ml ascorbic acid 2-phosphate, 50 μg/ml sodium ascorbate, 100 nM dexamethasone (osteogenic differentiation media) for up to three weeks. […] Media was replaced every 2-3 days.
as §1, with “Osteogenic pellet sections were also stained with von Kossa to detect mineralization. Images were captured using a Leica DM 2000 LED microscope with Leica Application Suite (LAS) software version 4.9.0 or Zeiss Axio Imager Z2 with Zen 3.1 Blue Edition software.” left out

[2] = T3 from day 48 to day 69, RNAseq

## N[C@@H](Cc1cc(I)c(Oc2ccc(O)c(I)c2)c(I)c1)C(=O)O [T3, Triiodothyronine]
[1]; T3 from day 48 to day 69
  spontaneous maturation to hypertrophic chondrocytes: enhanced
[1]; [2]
  expression of canonical cartilage genes (COL2A1, COL9A1, COL11A1, SOX9, SOX6, SOX5): downregulated
  expression of late hypertrophic cartilage markers (VEGFA, DMP1, HIF1A, MMP13, ALPL): enhanced expression
[1]; compared with spontaneous hypertrophy
  expression of ALPL, FOSL2, VEGFA, BMP7 and DMP1: only upregulated after stimulation
[1]; day 69
  chondronoid appearance by histology and immunostaining: appeared similar with and without T3
[1]; day 69+T3, core matrisome RNAseq
  expression of sentinel cartilage genes (COL11A1, COL9A1, COL9A2, COL9A3, EPYC, MATN1, LUM, COMP, EDIL3): downregulated
MCRIi001-A-2 organoids
  von Kossa staining in organoids pre-treated v not pre-treated: more extensive and more intense von Kossa staining
